Results taken from patent publication EP4745135A1 (Gluetacs Therapeutics (Shanghai) Co., Ltd., priority 2023, dated 2025).

Columns and labels:
IKZF2 = biological target: T1, IKZF2 (Homo sapiens, UniProt Q96SW2+Q9UKS7); assay: Western blot, degradation of substrate protein in hPBMCs; assay type: cell-based
T1 construct: effects of the compounds of the present disclosure on the expression of target proteins in cells; endogenous in cells; host or cells: human PBMCs (Milecell Biotechnologies)

WEE1 = biological target: T2, WEE1 (Homo sapiens, UniProt P30291+Q96SW2); assay: as above; assay type: cell-based
T2 construct: effects of the compounds of the present disclosure on the expression of target proteins in cells; endogenous in cells; host or cells: human PBMCs (Milecell Biotechnologies)

CK1α = biological target: T3, CK1α (Homo sapiens, UniProt P48729+Q96SW2); assay: as above; assay type: cell-based
T3 construct: effects of the compounds of the present disclosure on the expression of target proteins in cells; endogenous in cells; host or cells: human PBMCs (Milecell Biotechnologies)

IKZF1 = biological target: T4, IKZF1 (Homo sapiens, UniProt Q13422+Q96SW2); assay: as above; assay type: cell-based
T4 construct: effects of the compounds of the present disclosure on the expression of target proteins in cells; endogenous in cells; host or cells: human PBMCs (Milecell Biotechnologies)

IKZF3 = biological target: T5, IKZF3 (Homo sapiens, UniProt Q96SW2+Q9UKT9); assay: as above; assay type: cell-based
T5 construct: effects of the compounds of the present disclosure on the expression of target proteins in cells; endogenous in cells; host or cells: human PBMCs (Milecell Biotechnologies)

[1] = biological target: T6, human Cereblon WT GST-tagged protein (Homo sapiens, UniProt Q96SW2); assay: CRBN-binding affinity, HTRF (CEREBLON BINDING kit); conditions: for inhibition at 0.5 µM: read-out: Inhibition Rate at 0.5 µM (%); for inhibition at 2 µM: read-out: Inhibition Rate at 2 µM (%)
T6 construct: purchased CISBIO 64BDCRBNPEH

GSPT1 = assay: Western blot, degradation of substrate protein in hPBMCs; assay type: cell-based, Human
[2] = Western blot, 24 hours of compound treatment, compounds tested at 50 nM and 500 nM (concentration for the table not stated)
[3] = 24 hours treatment, compounds at 50 nM and 500 nM (concentration behind the class not stated)

T6 sequence (Q96SW2 whole entry): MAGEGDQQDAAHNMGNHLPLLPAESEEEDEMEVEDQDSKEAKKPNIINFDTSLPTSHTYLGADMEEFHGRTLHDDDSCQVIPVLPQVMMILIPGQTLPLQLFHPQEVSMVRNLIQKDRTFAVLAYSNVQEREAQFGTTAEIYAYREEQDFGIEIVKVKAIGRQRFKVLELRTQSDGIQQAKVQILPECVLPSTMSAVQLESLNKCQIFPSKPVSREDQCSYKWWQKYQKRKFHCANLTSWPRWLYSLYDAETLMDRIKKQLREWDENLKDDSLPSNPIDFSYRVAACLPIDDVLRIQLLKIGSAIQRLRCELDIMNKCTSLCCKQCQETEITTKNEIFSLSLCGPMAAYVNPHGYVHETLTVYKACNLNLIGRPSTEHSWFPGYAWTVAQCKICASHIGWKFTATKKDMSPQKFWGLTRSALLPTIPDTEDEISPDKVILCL
T5 sequence (Q9UKT9 whole entry): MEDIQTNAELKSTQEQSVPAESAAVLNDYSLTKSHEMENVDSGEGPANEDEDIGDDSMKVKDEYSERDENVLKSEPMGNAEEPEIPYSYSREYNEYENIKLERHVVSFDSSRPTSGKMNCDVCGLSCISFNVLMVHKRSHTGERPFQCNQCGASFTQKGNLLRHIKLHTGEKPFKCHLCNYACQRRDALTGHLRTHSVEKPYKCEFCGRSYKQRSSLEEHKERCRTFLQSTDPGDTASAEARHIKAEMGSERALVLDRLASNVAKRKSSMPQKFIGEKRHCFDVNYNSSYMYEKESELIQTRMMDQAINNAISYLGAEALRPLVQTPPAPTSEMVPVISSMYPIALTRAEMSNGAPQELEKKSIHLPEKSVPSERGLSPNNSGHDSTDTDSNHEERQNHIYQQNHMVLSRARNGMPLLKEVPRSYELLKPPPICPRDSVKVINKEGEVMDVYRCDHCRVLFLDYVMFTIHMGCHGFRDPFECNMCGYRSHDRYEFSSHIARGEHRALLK
T5 sequence (Q96SW2 whole entry): as the sequence (Q96SW2 whole entry) above
T5 sequence (Q16531 whole entry partner): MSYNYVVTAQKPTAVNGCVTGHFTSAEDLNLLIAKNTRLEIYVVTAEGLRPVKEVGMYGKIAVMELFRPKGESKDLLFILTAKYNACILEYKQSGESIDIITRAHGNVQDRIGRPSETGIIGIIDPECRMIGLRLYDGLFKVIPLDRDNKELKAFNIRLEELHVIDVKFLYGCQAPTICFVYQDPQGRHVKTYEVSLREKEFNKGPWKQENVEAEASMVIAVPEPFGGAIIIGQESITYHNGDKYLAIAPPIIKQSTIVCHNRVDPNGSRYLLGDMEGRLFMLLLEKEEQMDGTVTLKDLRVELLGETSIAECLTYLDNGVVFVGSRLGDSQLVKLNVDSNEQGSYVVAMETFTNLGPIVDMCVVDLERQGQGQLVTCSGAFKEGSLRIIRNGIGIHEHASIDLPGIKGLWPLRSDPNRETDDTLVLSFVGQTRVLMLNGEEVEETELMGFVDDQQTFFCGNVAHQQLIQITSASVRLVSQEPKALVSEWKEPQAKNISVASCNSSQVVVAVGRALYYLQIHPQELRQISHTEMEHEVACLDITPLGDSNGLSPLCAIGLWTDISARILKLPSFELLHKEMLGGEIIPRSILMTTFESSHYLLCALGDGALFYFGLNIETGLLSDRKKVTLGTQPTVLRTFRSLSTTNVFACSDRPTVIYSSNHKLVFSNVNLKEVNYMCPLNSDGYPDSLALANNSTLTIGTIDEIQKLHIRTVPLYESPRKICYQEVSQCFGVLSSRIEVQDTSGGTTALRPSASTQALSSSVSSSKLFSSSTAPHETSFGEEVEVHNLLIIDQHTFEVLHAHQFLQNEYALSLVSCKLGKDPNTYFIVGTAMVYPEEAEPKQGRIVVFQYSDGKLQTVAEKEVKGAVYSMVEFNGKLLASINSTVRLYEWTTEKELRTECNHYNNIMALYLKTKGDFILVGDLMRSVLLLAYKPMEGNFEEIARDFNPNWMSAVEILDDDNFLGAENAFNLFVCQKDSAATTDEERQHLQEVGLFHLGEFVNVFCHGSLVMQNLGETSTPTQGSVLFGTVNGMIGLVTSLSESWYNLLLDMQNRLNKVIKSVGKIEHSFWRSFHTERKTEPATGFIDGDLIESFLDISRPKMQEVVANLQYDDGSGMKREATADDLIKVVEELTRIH
T4 sequence (Q13422 whole entry): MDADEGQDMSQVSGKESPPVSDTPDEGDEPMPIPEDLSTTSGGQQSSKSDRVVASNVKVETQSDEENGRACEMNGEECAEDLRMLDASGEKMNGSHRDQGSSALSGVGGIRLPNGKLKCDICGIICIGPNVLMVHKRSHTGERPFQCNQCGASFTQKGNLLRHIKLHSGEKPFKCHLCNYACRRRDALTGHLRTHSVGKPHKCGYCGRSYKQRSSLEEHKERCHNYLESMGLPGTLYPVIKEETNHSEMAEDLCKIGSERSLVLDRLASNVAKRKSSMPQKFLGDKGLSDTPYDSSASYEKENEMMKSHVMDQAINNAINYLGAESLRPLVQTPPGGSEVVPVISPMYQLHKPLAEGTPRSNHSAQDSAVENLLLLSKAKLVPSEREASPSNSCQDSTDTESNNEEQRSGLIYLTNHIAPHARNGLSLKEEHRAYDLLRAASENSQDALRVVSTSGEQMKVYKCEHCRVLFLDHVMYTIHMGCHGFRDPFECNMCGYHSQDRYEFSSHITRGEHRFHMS
T4 sequence (Q96SW2 whole entry): as the sequence (Q96SW2 whole entry) above
T4 sequence (Q16531 whole entry partner): as the sequence (Q16531 whole entry partner) above
T2 sequence (P30291 whole entry): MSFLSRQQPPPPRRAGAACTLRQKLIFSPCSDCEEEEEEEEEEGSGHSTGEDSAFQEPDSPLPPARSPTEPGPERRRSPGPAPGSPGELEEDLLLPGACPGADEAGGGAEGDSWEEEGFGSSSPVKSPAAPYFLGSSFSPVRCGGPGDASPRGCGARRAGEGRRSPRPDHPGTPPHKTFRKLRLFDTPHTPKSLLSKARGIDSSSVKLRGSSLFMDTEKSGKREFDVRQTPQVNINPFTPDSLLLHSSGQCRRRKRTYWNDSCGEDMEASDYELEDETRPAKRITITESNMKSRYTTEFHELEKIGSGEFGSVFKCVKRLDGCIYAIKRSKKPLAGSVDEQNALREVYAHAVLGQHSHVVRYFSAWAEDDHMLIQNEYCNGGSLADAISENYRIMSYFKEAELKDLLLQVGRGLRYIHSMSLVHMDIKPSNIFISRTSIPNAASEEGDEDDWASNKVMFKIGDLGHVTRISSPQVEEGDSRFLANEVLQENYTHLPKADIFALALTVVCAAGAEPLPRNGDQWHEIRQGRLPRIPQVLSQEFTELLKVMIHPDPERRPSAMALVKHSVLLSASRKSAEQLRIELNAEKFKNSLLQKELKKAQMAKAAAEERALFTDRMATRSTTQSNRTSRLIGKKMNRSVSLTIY
T2 sequence (Q96SW2 whole entry): as the sequence (Q96SW2 whole entry) above
T2 sequence (Q16531 whole entry partner): as the sequence (Q16531 whole entry partner) above
T1 sequence (Q9UKS7 whole entry): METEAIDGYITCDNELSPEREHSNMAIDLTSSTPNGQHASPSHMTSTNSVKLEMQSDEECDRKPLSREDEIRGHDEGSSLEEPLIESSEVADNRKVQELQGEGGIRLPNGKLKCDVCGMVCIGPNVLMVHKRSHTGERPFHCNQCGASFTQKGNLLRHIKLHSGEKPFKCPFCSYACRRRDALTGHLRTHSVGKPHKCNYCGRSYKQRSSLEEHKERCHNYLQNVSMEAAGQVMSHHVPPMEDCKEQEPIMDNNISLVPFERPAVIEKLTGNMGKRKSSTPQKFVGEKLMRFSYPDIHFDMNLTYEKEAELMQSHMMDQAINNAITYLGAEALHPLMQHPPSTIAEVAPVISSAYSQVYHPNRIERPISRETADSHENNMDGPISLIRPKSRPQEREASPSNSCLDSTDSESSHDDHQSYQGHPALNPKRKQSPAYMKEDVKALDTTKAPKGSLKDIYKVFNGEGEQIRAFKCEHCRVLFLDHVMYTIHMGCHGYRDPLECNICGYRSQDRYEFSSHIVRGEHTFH
T1 sequence (Q96SW2 whole entry): as the sequence (Q96SW2 whole entry) above
T1 sequence (Q16531 whole entry partner): as the sequence (Q16531 whole entry partner) above
T3 sequence (P48729 whole entry): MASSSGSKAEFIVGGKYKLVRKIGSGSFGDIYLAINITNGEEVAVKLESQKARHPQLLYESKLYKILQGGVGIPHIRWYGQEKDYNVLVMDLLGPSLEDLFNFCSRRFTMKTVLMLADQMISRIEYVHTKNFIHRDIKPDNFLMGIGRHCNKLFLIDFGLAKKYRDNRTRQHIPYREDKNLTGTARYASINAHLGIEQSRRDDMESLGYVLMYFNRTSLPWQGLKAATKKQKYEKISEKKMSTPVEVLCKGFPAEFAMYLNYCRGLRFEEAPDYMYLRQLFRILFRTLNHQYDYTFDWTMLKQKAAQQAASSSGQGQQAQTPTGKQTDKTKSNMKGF
T3 sequence (Q96SW2 whole entry): as the sequence (Q96SW2 whole entry) above
T3 sequence (Q16531 whole entry partner): as the sequence (Q16531 whole entry partner) above

SMILES | IKZF2 substrate protein remaining % (IKZF2; [2]) | Wee1 substrate protein remaining % (WEE1; [2]) | CK1α substrate protein remaining % (CK1α; [2]) | IKZF 1 substrate protein remaining % (IKZF1; [2]) | IKZF3 substrate protein remaining % (IKZF3; [2]) | inhibition at 0.5 µM [1] | inhibition at 2 µM [1] | GSPT1 substrate protein remaining % (GSPT1; [2]) | IKZF2 substrate protein remaining % (IKZF2; [3]) | Wee1 substrate protein remaining % (WEE1; [3]) | CK1α substrate protein remaining % (CK1α; [3]) | IKZF 1 substrate protein remaining % (IKZF1; [3]) | IKZF3 substrate protein remaining % (IKZF3; [3]) | IC50 ([1]; CRBN binding, HTRF, 3 hours at room temperature, read-out: HTRF IC50) | GSPT1 substrate protein remaining % (GSPT1; [3])
O=C1CCC(N2Cc3c(CN4CCN(c5ncccc5F)CC4)cccc3C2=S)C(=O)N1 (stereo not shown) [GT-08697, 3-(4-((4-(3-fluoropyridin-2-yl)piperazin-1-yl)methyl)-1-thioxoisoindolin-2-yl)piperidine-2,6-dione] | B (80%< substrate protein remaining %≤ 100%) | A (0% ≤ substrate protein remaining % ≤ 80%) | B (80%< substrate protein remaining %≤ 100%) | B (80%< substrate protein remaining %≤ 100%) | B (80%< substrate protein remaining %≤ 100%) | 60 to 80% | 80 to 100% | B (80%< substrate protein remaining %≤ 100%) | – | – | – | – | – | – | –
O=C1CCC(N2Cc3ccc(CN4CCC(c5noc6cc(F)ccc56)CC4)cc3C2=S)C(=O)N1 (stereo not shown) [GT-05031, 3-(6-((4-(6-fluorobenzo[d]isoxazol-3-yl)piperidin-1-yl)methyl)-1-thioxoisoindolin-2-yl)piperidine-2,6-dione] | – | – | – | – | – | – | – | – | B (80%< substrate protein remaining %≤ 100%) | B (80%< substrate protein remaining %≤ 100%) | B (80%< substrate protein remaining %≤ 100%) | B (80%< substrate protein remaining %≤ 100%) | A (0% ≤ substrate protein remaining % ≤ 80%) | 100 to 500 nM | A (0% ≤ substrate protein remaining % ≤ 80%)
O=C1CCC(N2Cc3c(CN4CCC(c5ccnc(F)c5F)CC4)cccc3C2=S)C(=O)N1 (stereo not shown) [GT-08459, 3-(4-((4-(2,3-difluoropyridin-4-yl)piperidin-1-yl)methyl)-1-thioxoisoindolin-2-yl)piperidine-2,6-dione] | B (80%< substrate protein remaining %≤ 100%) | A (0% ≤ substrate protein remaining % ≤ 80%) | B (80%< substrate protein remaining %≤ 100%) | B (80%< substrate protein remaining %≤ 100%) | B (80%< substrate protein remaining %≤ 100%) | 60 to 80% | 80 to 100% | B (80%< substrate protein remaining %≤ 100%) | – | – | – | – | – | – | –
O=C1CCC(N2Cc3c(CN4CC5CCC4CN5c4cccc(Cl)c4Cl)cccc3C2=S)C(=O)N1 (stereo not shown) [GT-08469, 3-(4-((5-(2,3-dichlorophenyl)-2,5-diazabicyclo[2.2.2]octan-2-yl)methyl)-1-thioxoisoindolin-2-yl)piperidine-2,6-dione] | B (80%< substrate protein remaining %≤ 100%) | B (80%< substrate protein remaining %≤ 100%) | B (80%< substrate protein remaining %≤ 100%) | B (80%< substrate protein remaining %≤ 100%) | B (80%< substrate protein remaining %≤ 100%) | 40 to 53% | 60 to 80% | A (0% ≤ substrate protein remaining % ≤ 80%) | – | – | – | – | – | – | –
O=C1CCC(N2Cc3cc(CN4CCN(c5ccc(F)cc5F)CC4)ccc3C2=S)C(=O)N1 (stereo not shown) [GT-08613, 3-(5-((4-(2,4-difluorophenyl)piperazin-1-yl)methyl)-1-thioxoisoindolin-2-yl)piperidine-2,6-dione] | B (80%< substrate protein remaining %≤ 100%) | B (80%< substrate protein remaining %≤ 100%) | B (80%< substrate protein remaining %≤ 100%) | B (80%< substrate protein remaining %≤ 100%) | B (80%< substrate protein remaining %≤ 100%) | 60 to 80% | 80 to 100% | A (0% ≤ substrate protein remaining % ≤ 80%) | – | – | – | – | – | – | –
O=C1CCC(N2Cc3cc(CN4CCC(c5ncnc6scc(-c7ccccc7)c56)CC4)ccc3C2=S)C(=O)N1 (stereo not shown) [GT-09307, 3-(5-((4-(5-phenylthieno[2,3-d]pyrimidin-4-yl)piperidin-1-yl)methyl)-1-thioxoisoindolin-2-yl)piperidine-2,6-dione] | – | – | – | – | – | 60 to 80% | 80 to 100% | – | B (80%< substrate protein remaining %≤ 100%) | A (0% ≤ substrate protein remaining % ≤ 80%) | A (0% ≤ substrate protein remaining % ≤ 80%) | A (0% ≤ substrate protein remaining % ≤ 80%) | A (0% ≤ substrate protein remaining % ≤ 80%) | – | A (0% ≤ substrate protein remaining % ≤ 80%)
O=C1CCC(N2Cc3c(CN4CCN(c5nc(Cl)nc6ccsc56)CC4)cccc3C2=S)C(=O)N1 (stereo not shown) [GT-08971, 3-(4-((4-(2-chlorothieno[3,2-d]pyrimidin-4-yl)piperazin-1-yl)methyl)-1-thioxoisoindolin-2-yl)piperidine-2,6-dione] | – | – | – | – | – | 80 to 100% | 80 to 100% | – | B (80%< substrate protein remaining %≤ 100%) | A (0% ≤ substrate protein remaining % ≤ 80%) | B (80%< substrate protein remaining %≤ 100%) | B (80%< substrate protein remaining %≤ 100%) | B (80%< substrate protein remaining %≤ 100%) | – | B (80%< substrate protein remaining %≤ 100%)
O=C1CCC(N2Cc3c(CN4CCN(c5c(F)cncc5Cl)CC4)cccc3C2=S)C(=O)N1 (stereo not shown) [GT-08802, 3-(4-((4-(3-chloro-5-fluoropyridin-4-yl)piperazin-1-yl)methyl)-1-thioxoisoindolin-2-yl)piperidine-2,6-dione] | B (80%< substrate protein remaining %≤ 100%) | A (0% ≤ substrate protein remaining % ≤ 80%) | B (80%< substrate protein remaining %≤ 100%) | B (80%< substrate protein remaining %≤ 100%) | B (80%< substrate protein remaining %≤ 100%) | 53 to 60% | 80 to 100% | B (80%< substrate protein remaining %≤ 100%) | – | – | – | – | – | – | –
CC1(C)CN(Cc2cccc3c2CN(C2CCC(=O)NC2=O)C3=S)CCN1C(c1ccccc1)c1ccccc1 (stereo not shown) [GT-08231, 3-(4-((4-benzhydryl-3,3-dimethylpiperazin-1-yl)methyl)-1-thioxoisoindolin-2-yl)piperidine-2,6-dione] | A (0% ≤ substrate protein remaining % ≤ 80%) | A (0% ≤ substrate protein remaining % ≤ 80%) | B (80%< substrate protein remaining %≤ 100%) | B (80%< substrate protein remaining %≤ 100%) | B (80%< substrate protein remaining %≤ 100%) | 53 to 60% | 60 to 80% | A (0% ≤ substrate protein remaining % ≤ 80%) | – | – | – | – | – | – | –
O=C1CCC(N2Cc3cc(CN4CCC(c5ccc(F)cc5)CC4)ccc3C2=S)C(=O)N1 (stereo not shown) [GT-08621, 3-(5-((4-(4-fluorophenyl)piperidin-1-yl)methyl)-1-thioxoisoindolin-2-yl)piperidine-2,6-dione] | A (0% ≤ substrate protein remaining % ≤ 80%) | B (80%< substrate protein remaining %≤ 100%) | B (80%< substrate protein remaining %≤ 100%) | B (80%< substrate protein remaining %≤ 100%) | B (80%< substrate protein remaining %≤ 100%) | 53 to 60% | 80 to 100% | A (0% ≤ substrate protein remaining % ≤ 80%) | – | – | – | – | – | – | –
